{
  "source": "patent US6569880B2",
  "about": "“Bis(benzimidazole) derivatives serving as potassium blocking agents” (Neurosearch A/S, priority 1998, dated 2003)",
  "note": "Where a name gives a salt, the structure may show the parent alone.",
  "data": [
    {"values": [
      {"smiles": "Nc1nc2ccccc2n1CCCn1c(N)nc2ccccc21", "note": "[Compound 1d, 1,3-Bis(2-aminobenzimidazol-1-yl)propane]", "melting point": "220 °C (dec.)"},
      {"smiles": "Nc1nc2ccccc2n1CCCCCCn1c(N)nc2ccccc21", "note": "(as salt: HCl) [Compound 1b, 1,6-Bis(2-aminobenzimidazol-1-yl)hexane]", "melting point": "145 to 147 °C"},
      {"smiles": "Nc1nc2ccccc2n1CCn1c(N)nc2ccccc21", "note": "[Compound 1e, 1,2-Bis(2-aminobenzimidazol-1-yl)ethane]", "melting point": "257 to 258 °C"}
    ]}
  ]
}
